In publication PMC9138505, “Small Molecule 20S Proteasome Enhancer Regulates MYC Protein Stability and Exhibits Antitumor Activity in Multiple Myeloma” (Biomedicines, 2022):
Values joined by “and” are separate entries in the source; they are usually repeats but may differ in a detail not shown here. Equal entries are not always repeated.

Tested on: RPMI-8226 cells
Test: Gene expression profiling, NanoString nCounter PanCancer Pathways Panel, ROSALIND analysis
Format: cell-based, human
Conditions: RPMI-8226, TCH-165 samples 1-3
Method: RPMI-8226 cells were treated with vehicle or TCH-165 (10 μM) for 4 h. Total RNA was obtained using the mirVana miRNA Isolation Kit, with phenol (Thermofisher Scientific; AM1560; Waltham, MA, USA). Total RNA was quantified by Qubit (Thermofisher Scientific; Q32855; Waltham, MA, USA). and gene expression was evaluated against the nCounter® PanCancer Pathways Panel^TM according to the standard NanoString protocol.
Data were analyzed by ROSALIND® [36] with a hyperscale architecture developed by ROSALIND, Inc. (San Diego, CA, USA). Normalization, fold changes and p-values were calculated using criteria provided by NanoString. ROSALIND follows the nCounter® Advanced Analysis protocol of dividing counts within a lane by the geometric mean of the normalizer probes from the same lane. Housekeeping probes to be used for normalization are selected based on the geNorm algorithm, as implemented in the NormqPCR R library. Fold changes and p-values are calculated using the fast method as described in the nCounter Advanced Analysis 2.0 User Manual. The p-value adjustment is performed using the Benjamini–Hochberg method of estimating false discovery rates (FDR). Clustering of genes for the final heatmap of differentially expressed genes was done using the PAM (Partitioning Around Medoids) method using the fpc R library. Hypergeometric distribution was used to analyze the enrichment of pathways, gene ontology, domain structure and other ontologies. The topGO R library was used to determine local similarities and dependencies between GO terms in order to perform Elim pruning correction. Several database sources were referenced for enrichment analysis, including Interpro [40], NCBI [41], MSigDB [42, 43], REACTOME [44], WikiPathways. Enrichment was calculated relative to a set of background genes relevant to the experiment.

Compound: CCOC(=O)[C@]1(c2ccccc2)N=C(c2ccc(OC)cc2)N(Cc2ccccc2)[C@@H]1c1ccc(NCc2ccccc2)cc1 [TCH-165]
- HRAS normalized gene expression: 7.087 and 7.184 and 7.0682
- HSP90B1 normalized gene expression: 11.9809 and 12.0196 and 12.0083
- HSPA1A normalized gene expression: 6.793 and 6.667 and 6.528
- HSPA2 normalized gene expression: 5.259 and 4.962 and 5.39
- HSPA6 normalized gene expression: 8.169 and 8.132 and 8.184
- HSPB1 normalized gene expression: 10.6744 and 10.4282 and 10.4272
- IBSP normalized gene expression: 4.101 and 4.427 and 3.5707
- ID1 normalized gene expression: 7.234 and 7.077 and 7.39
- ID2 normalized gene expression: 8.252 and 8.085 and 8.156
- ID4 normalized gene expression: 5.308 and 4.962 and 4.5707
- IDH1 normalized gene expression: 8.037 and 7.944 and 8.087
- IDH2 normalized gene expression: 10.7214 and 10.6097 and 10.5399
- IFNA2 normalized gene expression: 4.793 and 5.029 and 4.876
- IFNA7 normalized gene expression: 4.208 and 3.891 and 3.653
- IFNA17 normalized gene expression: 5.445 and 5.817 and 5.712
- IFNG normalized gene expression: 4.723 and 3.739 and 3.731
- IGF1R normalized gene expression: 9.24 and 9.089 and 9.141
- IGF1 normalized gene expression: 5.686 and 5.427 and 5.0682
- IGFBP3 normalized gene expression: 11.5972 and 11.5942 and 11.578
- IKBKB normalized gene expression: 7.271 and 7.249 and 6.85
- IKBKG normalized gene expression: 8.189 and 8.037 and 8.156
- IL1A normalized gene expression: 4.208 and 4.154 and 4.0682
- IL1B normalized gene expression: 5.044 and 4.427 and 4.805
- IL1R1 normalized gene expression: 4.723 and 4.27 and 4.1271
- IL1RAP normalized gene expression: 6.044 and 5.927 and 6.0682
- IL2RA normalized gene expression: 4.571 and 4.27 and 4.291
- IL2RB normalized gene expression: 4.101 and 3.891 and 4.437
- IL3RA normalized gene expression: 6.378 and 6.614 and 6.197
- IL3 normalized gene expression: 5.61 and 4.996 and 5.211
- IL5RA normalized gene expression: 6.182 and 6.2133 and 6.211
- IL6R normalized gene expression: 6.156 and 6.045 and 5.926
- IL6 normalized gene expression: 4.308 and 3.476 and 3.0682
- IL7R normalized gene expression: 4.571 and 4.569 and 4.528
- IL7 normalized gene expression: 4.101 and 4.739 and 4.805
- IL10 normalized gene expression: 5.892 and 6.27 and 6.238
- IL11RA normalized gene expression: 4.649 and 4.476 and 3.291
- IL11 normalized gene expression: 4.208 and 4.324 and 4.341
- IL12A normalized gene expression: 2.986 and 2.739 and 2.943
- IL12B normalized gene expression: 4.86 and 4.657 and 4.613
- IL12RB2 normalized gene expression: 4.401 and 3.476 and 3.39
- IL13RA2 normalized gene expression: 3.86 and 3.962 and 3.39
- IL13 normalized gene expression: 3.986 and 4.699 and 4.653
- IL15 normalized gene expression: 3.986 and 3.962 and 4.0682
- IL19 normalized gene expression: 5.044 and 4.855 and 5.0068
- IL20RA normalized gene expression: 4.101 and 3.739 and 4.0682
- IL20RB normalized gene expression: 5.892 and 5.836 and 5.613
- IL23A normalized gene expression: 6.355 and 5.979 and 6.038
- IL24 normalized gene expression: 4.208 and 5.427 and 4.876
- INHBA normalized gene expression: 4.793 and 4.569 and 4.0682
- INHBB normalized gene expression: 5.53 and 5.927 and 5.75
- IRAK2 normalized gene expression: 5.892 and 5.524 and 5.893
- IRAK3 normalized gene expression: 5.156 and 5.029 and 4.805
- IRS1 normalized gene expression: 5.308 and 4.996 and 4.805
- ITGA2 normalized gene expression: 3.723 and 3.657 and 3.731
- ITGA3 normalized gene expression: 7.115 and 6.979 and 6.693
- ITGA6 normalized gene expression: 5.259 and 5.242 and 4.653
- ITGA7 normalized gene expression: 4.208 and 4.154 and 4.943
- ITGA8 normalized gene expression: 5.488 and 4.891 and 5.098
- ITGA9 normalized gene expression: 4.86 and 4.996 and 4.437
- ITGB3 normalized gene expression: 3.401 and 2.739 and 3.731
- ITGB4 normalized gene expression: 5.308 and 5.184 and 5.0682
- ITGB6 normalized gene expression: 5.571 and 5.2133 and 5.291
- ITGB7 normalized gene expression: 14.1153 and 14.105 and 14.0545
- ITGB8 normalized gene expression: 6.445 and 6.452 and 6.602
- JAG1 normalized gene expression: 8.08 and 7.864 and 7.85
- JAG2 normalized gene expression: 7.169 and 7.476 and 7.455
- JAK1 normalized gene expression: 9.467 and 9.41 and 9.414
- JAK2 normalized gene expression: 6.331 and 6.311 and 6.4021
- JUN normalized gene expression: 8.667 and 8.646 and 8.78
- KAT2B normalized gene expression: 7.955 and 8.18 and 8.102
- KDM5C normalized gene expression: 9.094 and 8.985 and 8.924
- KDM6A normalized gene expression: 4.401 and 4.029 and 3.943
- KIT normalized gene expression: 5.101 and 4.739 and 4.528
- KITLG normalized gene expression: 4.649 and 4.739 and 4.5707
- KLF4 normalized gene expression: 4.308 and 4.996 and 4.769
- KMT2D normalized gene expression: 8.115 and 8.314 and 8.228
- KRAS normalized gene expression: 11.0766 and 10.9767 and 10.9365
- LAMA3 normalized gene expression: 5.308 and 5.324 and 5.1271
- LAMA5 normalized gene expression: 5.986 and 5.739 and 5.693
- LAMB3 normalized gene expression: 6.234 and 6.169 and 6.1271
- LAMB4 normalized gene expression: 4.401 and 4.029 and 3.731
- LAMC2 normalized gene expression: 3.723 and 3.27 and 3.731
- LAMC3 normalized gene expression: 5.649 and 4.996 and 4.693
- LAT normalized gene expression: 5.723 and 5.927 and 5.366
- LEF1 normalized gene expression: 3.86 and 2.891 and 2.291
- LEFTY1 normalized gene expression: 5.723 and 4.855 and 5.0068
- LEFTY2 normalized gene expression: 6.571 and 6.657 and 6.814
- LEP normalized gene expression: 5.259 and 4.855 and 4.291
- LEPR normalized gene expression: 6.401 and 5.817 and 6.378
- LFNG normalized gene expression: 5.758 and 5.2133 and 4.805
- LIF normalized gene expression: 5.259 and 5.029 and 5.156
